Assays:
[1] = system: TGF-β-stimulated SMAD3 phosphorylation in BEAS-2B cells; assay: Cellular ALK5 potency assay, inhibition of TGF-β stimulated pSMAD3 formation in BEAS-2B cells; assay type: cell-based; conditions: Homo sapiens, pSMAD3, TGF-β 10 ng/mL, read-out: BEAS2B pIC50 (converted)
Summary of the method: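 Read-out is AlphaLISA detection of phospho-SMAD3 in lysates of BEAS-2B human lung epithelial cells. Cells are exposed to compound for 1 hour, then to 10 ng/mL TGF-β (final) for 30 minutes. Values are pIC50 from concentration–response curves.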

[2] = target: T1, recombinant human ALK5 (TGF-βR1) protein (Homo sapiens, UniProt P36897); assay: Biochemical ALK5 (TGF-βR1) assay to measure pKi (LANCE Ultra ULight kinase assay); conditions: apparent pKi, converted from pIC50 by Cheng-Prusoff
T1 construct: purchased Life Technologies PR9075A
T1 sequence (P36897 34-503): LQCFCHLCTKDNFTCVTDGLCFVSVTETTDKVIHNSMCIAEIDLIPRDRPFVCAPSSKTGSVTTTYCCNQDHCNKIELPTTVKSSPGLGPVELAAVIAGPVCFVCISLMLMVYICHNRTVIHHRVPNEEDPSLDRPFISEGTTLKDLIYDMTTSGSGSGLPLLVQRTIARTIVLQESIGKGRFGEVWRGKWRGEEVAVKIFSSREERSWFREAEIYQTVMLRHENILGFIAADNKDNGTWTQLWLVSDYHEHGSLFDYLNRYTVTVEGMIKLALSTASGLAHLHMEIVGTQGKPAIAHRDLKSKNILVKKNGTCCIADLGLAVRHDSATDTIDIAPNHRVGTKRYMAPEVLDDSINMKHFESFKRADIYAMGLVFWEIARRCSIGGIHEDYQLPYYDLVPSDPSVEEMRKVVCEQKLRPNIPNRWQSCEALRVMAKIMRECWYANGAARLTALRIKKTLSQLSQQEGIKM
Summary of the method: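 Read-out was LANCE Ultra TR-FRET with a europium anti-phospho-Topo IIα Thr1342 antibody after EDTA quench. Kinase reaction ran 60 min at 37 °C with ATP added from a 125 μM 5× stock, after 60 min compound–enzyme equilibration at room temperature. Values are pKi from Cheng-Prusoff conversion of fitted pIC50.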

| Ki [2] [nM] | SMILES | IC50 [1] [nM] |
| --- | --- | --- |
| 3.98 to 31.6 | Fc1ccc(-c2nccc(Nc3ccnc(Nc4ccc(N5CCOCC5)cc4)n3)n2)nc1C(F)F [Compound 426, N4-(2-(6-(difluoromethyl)-5-fluoropyridin-2-yl)pyrimidin-4-yl)-N2-(4-morpholinophenyl)pyrimidine-2,4-diamine] | 25.1 to 158 |
| 0.0398 to 0.316 | Cc1cccc(-c2nccc(Nc3ccnc(Nc4ccc5c(c4)CCNCC5)n3)n2)n1 [Compound 160, N4-[2-(6-methyl-2-pyridyl)pyrimidin-4-yl]-N2-(2,3,4,5-tetrahydro-1H-3-benzazepin-7-yl)pyrimidine-2,4-diamine] | 25.1 to 158 |
| 0.0398 to 0.316 | Cc1cccc(-c2nc(Nc3ccnc(Nc4ccc(N5CCNCC5)cc4)n3)cc(-c3c[nH]nn3)n2)n1 [Compound 1012, N4-[2-(6-methyl-2-pyridyl)-6-(1H-triazol-4-yl)pyrimidin-4-yl]-N2-(4-piperazin-1-ylphenyl)pyrimidine-2,4-diamine] | 1580 to 10000 |
| 0.398 to 3.16 | Cc1cccc(-c2nccc(Nc3ccnc(Nc4ccc(NCC5(CO)CNC5)cc4)n3)n2)n1 [Compound 310, [3-[[4-[[4-[[2-(6-methyl-2-pyridyl)pyrimidin-4-yl]amino]pyrimidin-2-yl]amino]anilino]methyl]azetidin-3-yl] methanol] | 25.1 to 158 |
| 0.0398 to 0.316 | Fc1ccc(Cl)cc1-c1nccc(Nc2ccnc(Nc3ccc(N4CCNCC4)cc3)n2)n1 [Compound 398, N4-[2-(5-chloro-2-fluoro-phenyl)pyrimidin-4-yl]-N2-(4-piperazin-1-ylphenyl)pyrimidine-2,4-diamine] | 25.1 to 158 |
| 0.398 to 3.16 | Cc1cccc(-c2nccc(Nc3ccnc(Nc4nc(C(=O)OCC5CCNCC5)cs4)n3)n2)n1 [Compound 615, 4-piperidylmethyl 2-[[4-[[2-(6-methyl-2-pyridyl)pyrimidin-4-yl]amino]pyrimidin-2-yl]amino]thiazole-4-carboxylate] | 200 to 1260 |
| 0.0398 to 0.316 | CNC1CCN(c2ccc(Nc3nccc(Nc4ccnc(-c5cc(Cl)ccc5F)n4)n3)cc2)CC1 [Compound 137, N4-[2-(5-chloro-2-fluoro-phenyl)pyrimidin-4-yl]-N2-[4-[4-(methylamino)-1-piperidyl]phenyl]pyrimidine-2,4-diamine] | 25.1 to 158 |
| 0.0398 to 0.316 | Cc1cccc(-c2nccc(Nc3ccnc(Nc4ccc(CN5CCC[C@H](C(=O)OCC6CN(C)C6)C5)cc4)n3)n2)n1 [Compound 73, (1-methylazetidin-3-yl)methyl (3S)-1-[[4-[[4-[[2-(6-methyl-2-pyridyl)pyrimidin-4-yl]amino]pyrimidin-2-yl]amino]phenyl]methyl] piperidine-3-carboxylate] | 25.1 to 158 |
| 0.0398 to 0.316 | Cc1cccc(-c2nccc(Nc3ccnc(Nc4ccc(CN5CCN(C)CC5)cc4)n3)n2)n1 [Compound 305, N2-[4-[(4-methylpiperazin-1-yl)methyl]phenyl]-N4-[2-(6-methyl-2-pyridyl)pyrimidin-4-yl]pyrimidine-2,4-diamine] | 25.1 to 158 |
| 0.398 to 3.16 | Cc1cccc(-c2nccc(Nc3ccnc(Nc4ccc(C(=O)OCCN5CCN6CCCC6C5)nc4)n3)n2)n1 (stereo not drawn) [Compound 613, 2-(3,4,6,7,8,8a-hexahydro-1H-pyrrolo[1,2-a]pyrazin-2-yl)ethyl 5-[[4-[[2-(6-methyl-2-pyridyl)pyrimidin-4-yl]amino]pyrimidin-2-yl]amino]pyridine-2-carboxylate] | 25.1 to 158 |
| 0.0398 to 0.316 | Cc1cccc(-c2nccc(Nc3ccnc(Nc4ccc(NS(C)(=O)=O)cc4)n3)n2)n1 [Compound 272, N-[4-[[4-[[2-(6-methyl-2-pyridyl)pyrimidin-4-yl]amino]pyrimidin-2-yl]amino]phenyl] methanesulfonamide] | 25.1 to 158 |
| 0.0398 to 0.316 | Cc1cccc(-c2nccc(Nc3ccnc(Nc4ccc(CN5CCC(C(=O)OC6CNC6)C5)cc4)n3)n2)n1 (stereo not drawn) [Compound 50, azetidin-3-yl 1-[[4-[[4-[[2-(6-methyl-2-pyridyl)pyrimidin-4-yl]amino]pyrimidin-2-yl]amino]phenyl]methyl] pyrrolidine-3-carboxylate] | 25.1 to 158 |
| 0.398 to 3.16 | Cc1cccc(-c2nccc(Nc3ccnc(Nc4nc(C(=O)OCC5CNC5)cs4)n3)n2)n1 [Compound 256, azetidin-3-ylmethyl 2-[[4-[[2-(6-methyl-2-pyridyl)pyrimidin-4-yl]amino]pyrimidin-2-yl]amino]thiazole-4-carboxylate] | 200 to 1260 |
| 0.0398 to 0.316 | COc1ccc(Nc2nccc(Nc3ccnc(-c4cccc(C)n4)n3)n2)cc1CN1C[C@@H](C)N[C@@H](C)C1 [Compound 431, N2-[4-methoxy-3-[[rac-(3R,5S)-3,5-dimethylpiperazin-1-yl]methyl]phenyl]-N4-[2-(6-methyl-2-pyridyl)pyrimidin-4-yl]pyrimidine-2,4-diamine] | 25.1 to 158 |
| 0.398 to 3.16 | Cc1cccc(-c2nccc(Nc3ccnc(Nc4ccc(N5CCC(CNCc6ccccc6)CC5)cc4)n3)n2)n1 [Compound 471, N2-[4-[4-[(benzylamino)methyl]-1-piperidyl]phenyl]-N4-[2-(6-methyl-2-pyridyl)pyrimidin-4-yl]pyrimidine-2,4-diamine] | 200 to 1260 |
| 0.0398 to 0.316 | Cc1cccc(-c2nccc(Nc3ccnc(Nc4cccc(CN5CCN(C)CC5)c4)n3)n2)n1 [Compound 521, N2-[3-[(4-methylpiperazin-1-yl)methyl]phenyl]-N4-[2-(6-methyl-2-pyridyl)pyrimidin-4-yl]pyrimidine-2,4-diamine] | 25.1 to 158 |
| 0.398 to 3.16 | Cc1cccc(-c2nccc(Nc3ccnc(Nc4ccc(F)c(CN5CCSCC5)c4)n3)n2)n1 [Compound 461, N2-[4-fluoro-3-(thiomorpholinomethyl)phenyl]-N4-[2-(6-methyl-2-pyridyl)pyrimidin-4-yl]pyrimidine-2,4-diamine] | 25.1 to 158 |
| 3.98 to 31.6 | Cc1cccc(-c2nccc(Nc3ccnc(Nc4cc(C(=O)O[C@@H]5CCNC5)ccn4)n3)n2)n1 [Compound 601, [(3R)-pyrrolidin-3-yl] 2-[[4-[[2-(6-methyl-2-pyridyl)pyrimidin-4-yl]amino]pyrimidin-2-yl]amino]pyridine-4-carboxylate] | 200 to 1260 |
| 0.0398 to 0.316 | Fc1ccc(Cl)cc1-c1nccc(Nc2ccnc(Nc3ccc(N4CCC(N5CCCC5)CC4)cc3)n2)n1 [Compound 412, N4-[2-(5-chloro-2-fluoro-phenyl)pyrimidin-4-yl]-N2-[4-(4-pyrrolidin-1-yl-1-piperidyl)phenyl]pyrimidine-2,4-diamine] | 25.1 to 158 |
| 0.398 to 3.16 | CCOC(=O)Cn1cc(-c2ccc(Nc3nccc(Nc4ccnc(-c5cccc(C)n5)n4)n3)cc2)cn1 [Compound 47, ethyl 2-[4-[4-[[4-[[2-(6-methyl-2-pyridyl)pyrimidin-4-yl]amino]pyrimidin-2-yl]amino]phenyl]pyrazol-1-yl]acetate] | 25.1 to 158 |
| 3.98 to 31.6 | Fc1ccc(Cl)cc1-c1nccc(Nc2ccnc(Nc3ccc(CN4CCOCC4)cc3)n2)n1 [Compound 165, N4-[2-(5-chloro-2-fluoro-phenyl)pyrimidin-4-yl]-N2-[4-(morpholinomethyl)phenyl] pyrimidine-2,4-diamine] | 25.1 to 158 |

Reference: patent US20230399312A1, “SUBSTITUTED PYRIMIDINES AND METHODS OF USE” (THERAVANCE BIOPHARMA R&D IP, LLC, priority 2020, published 2023)
